Assay results reported in patent US20160199500A1, “COMPOSITIONS COMPRISING VITAMIN B12 AND INTRINSIC FACTOR AND METHODS OF USE THEREOF” (Syracuse University, priority 2013, published 2016).
pKd: −log10 of the molar value.

Columns and labels:
[1] = pre injection of 50 mg two minutes before an 125I-labeled conjugate, mice; cited from earlier work
[2] = system: BeWo cells (cubilin receptor); assay: Uptake and internalization in BeWo cells by confocal microscopy; assay type: cell-based; conditions: conjugates incubated with IF
cubilin (CUBN) = cubilin (CUBN) (Homo sapiens, UniProt O60494+P27352); conditions: binds CUB domains 5-8, Ca2+ dependent; read-out: Kd of IF-B12 for cubilin; cited from earlier work
Chain of cubilin (CUBN) (O60494 36-3623, species assumed): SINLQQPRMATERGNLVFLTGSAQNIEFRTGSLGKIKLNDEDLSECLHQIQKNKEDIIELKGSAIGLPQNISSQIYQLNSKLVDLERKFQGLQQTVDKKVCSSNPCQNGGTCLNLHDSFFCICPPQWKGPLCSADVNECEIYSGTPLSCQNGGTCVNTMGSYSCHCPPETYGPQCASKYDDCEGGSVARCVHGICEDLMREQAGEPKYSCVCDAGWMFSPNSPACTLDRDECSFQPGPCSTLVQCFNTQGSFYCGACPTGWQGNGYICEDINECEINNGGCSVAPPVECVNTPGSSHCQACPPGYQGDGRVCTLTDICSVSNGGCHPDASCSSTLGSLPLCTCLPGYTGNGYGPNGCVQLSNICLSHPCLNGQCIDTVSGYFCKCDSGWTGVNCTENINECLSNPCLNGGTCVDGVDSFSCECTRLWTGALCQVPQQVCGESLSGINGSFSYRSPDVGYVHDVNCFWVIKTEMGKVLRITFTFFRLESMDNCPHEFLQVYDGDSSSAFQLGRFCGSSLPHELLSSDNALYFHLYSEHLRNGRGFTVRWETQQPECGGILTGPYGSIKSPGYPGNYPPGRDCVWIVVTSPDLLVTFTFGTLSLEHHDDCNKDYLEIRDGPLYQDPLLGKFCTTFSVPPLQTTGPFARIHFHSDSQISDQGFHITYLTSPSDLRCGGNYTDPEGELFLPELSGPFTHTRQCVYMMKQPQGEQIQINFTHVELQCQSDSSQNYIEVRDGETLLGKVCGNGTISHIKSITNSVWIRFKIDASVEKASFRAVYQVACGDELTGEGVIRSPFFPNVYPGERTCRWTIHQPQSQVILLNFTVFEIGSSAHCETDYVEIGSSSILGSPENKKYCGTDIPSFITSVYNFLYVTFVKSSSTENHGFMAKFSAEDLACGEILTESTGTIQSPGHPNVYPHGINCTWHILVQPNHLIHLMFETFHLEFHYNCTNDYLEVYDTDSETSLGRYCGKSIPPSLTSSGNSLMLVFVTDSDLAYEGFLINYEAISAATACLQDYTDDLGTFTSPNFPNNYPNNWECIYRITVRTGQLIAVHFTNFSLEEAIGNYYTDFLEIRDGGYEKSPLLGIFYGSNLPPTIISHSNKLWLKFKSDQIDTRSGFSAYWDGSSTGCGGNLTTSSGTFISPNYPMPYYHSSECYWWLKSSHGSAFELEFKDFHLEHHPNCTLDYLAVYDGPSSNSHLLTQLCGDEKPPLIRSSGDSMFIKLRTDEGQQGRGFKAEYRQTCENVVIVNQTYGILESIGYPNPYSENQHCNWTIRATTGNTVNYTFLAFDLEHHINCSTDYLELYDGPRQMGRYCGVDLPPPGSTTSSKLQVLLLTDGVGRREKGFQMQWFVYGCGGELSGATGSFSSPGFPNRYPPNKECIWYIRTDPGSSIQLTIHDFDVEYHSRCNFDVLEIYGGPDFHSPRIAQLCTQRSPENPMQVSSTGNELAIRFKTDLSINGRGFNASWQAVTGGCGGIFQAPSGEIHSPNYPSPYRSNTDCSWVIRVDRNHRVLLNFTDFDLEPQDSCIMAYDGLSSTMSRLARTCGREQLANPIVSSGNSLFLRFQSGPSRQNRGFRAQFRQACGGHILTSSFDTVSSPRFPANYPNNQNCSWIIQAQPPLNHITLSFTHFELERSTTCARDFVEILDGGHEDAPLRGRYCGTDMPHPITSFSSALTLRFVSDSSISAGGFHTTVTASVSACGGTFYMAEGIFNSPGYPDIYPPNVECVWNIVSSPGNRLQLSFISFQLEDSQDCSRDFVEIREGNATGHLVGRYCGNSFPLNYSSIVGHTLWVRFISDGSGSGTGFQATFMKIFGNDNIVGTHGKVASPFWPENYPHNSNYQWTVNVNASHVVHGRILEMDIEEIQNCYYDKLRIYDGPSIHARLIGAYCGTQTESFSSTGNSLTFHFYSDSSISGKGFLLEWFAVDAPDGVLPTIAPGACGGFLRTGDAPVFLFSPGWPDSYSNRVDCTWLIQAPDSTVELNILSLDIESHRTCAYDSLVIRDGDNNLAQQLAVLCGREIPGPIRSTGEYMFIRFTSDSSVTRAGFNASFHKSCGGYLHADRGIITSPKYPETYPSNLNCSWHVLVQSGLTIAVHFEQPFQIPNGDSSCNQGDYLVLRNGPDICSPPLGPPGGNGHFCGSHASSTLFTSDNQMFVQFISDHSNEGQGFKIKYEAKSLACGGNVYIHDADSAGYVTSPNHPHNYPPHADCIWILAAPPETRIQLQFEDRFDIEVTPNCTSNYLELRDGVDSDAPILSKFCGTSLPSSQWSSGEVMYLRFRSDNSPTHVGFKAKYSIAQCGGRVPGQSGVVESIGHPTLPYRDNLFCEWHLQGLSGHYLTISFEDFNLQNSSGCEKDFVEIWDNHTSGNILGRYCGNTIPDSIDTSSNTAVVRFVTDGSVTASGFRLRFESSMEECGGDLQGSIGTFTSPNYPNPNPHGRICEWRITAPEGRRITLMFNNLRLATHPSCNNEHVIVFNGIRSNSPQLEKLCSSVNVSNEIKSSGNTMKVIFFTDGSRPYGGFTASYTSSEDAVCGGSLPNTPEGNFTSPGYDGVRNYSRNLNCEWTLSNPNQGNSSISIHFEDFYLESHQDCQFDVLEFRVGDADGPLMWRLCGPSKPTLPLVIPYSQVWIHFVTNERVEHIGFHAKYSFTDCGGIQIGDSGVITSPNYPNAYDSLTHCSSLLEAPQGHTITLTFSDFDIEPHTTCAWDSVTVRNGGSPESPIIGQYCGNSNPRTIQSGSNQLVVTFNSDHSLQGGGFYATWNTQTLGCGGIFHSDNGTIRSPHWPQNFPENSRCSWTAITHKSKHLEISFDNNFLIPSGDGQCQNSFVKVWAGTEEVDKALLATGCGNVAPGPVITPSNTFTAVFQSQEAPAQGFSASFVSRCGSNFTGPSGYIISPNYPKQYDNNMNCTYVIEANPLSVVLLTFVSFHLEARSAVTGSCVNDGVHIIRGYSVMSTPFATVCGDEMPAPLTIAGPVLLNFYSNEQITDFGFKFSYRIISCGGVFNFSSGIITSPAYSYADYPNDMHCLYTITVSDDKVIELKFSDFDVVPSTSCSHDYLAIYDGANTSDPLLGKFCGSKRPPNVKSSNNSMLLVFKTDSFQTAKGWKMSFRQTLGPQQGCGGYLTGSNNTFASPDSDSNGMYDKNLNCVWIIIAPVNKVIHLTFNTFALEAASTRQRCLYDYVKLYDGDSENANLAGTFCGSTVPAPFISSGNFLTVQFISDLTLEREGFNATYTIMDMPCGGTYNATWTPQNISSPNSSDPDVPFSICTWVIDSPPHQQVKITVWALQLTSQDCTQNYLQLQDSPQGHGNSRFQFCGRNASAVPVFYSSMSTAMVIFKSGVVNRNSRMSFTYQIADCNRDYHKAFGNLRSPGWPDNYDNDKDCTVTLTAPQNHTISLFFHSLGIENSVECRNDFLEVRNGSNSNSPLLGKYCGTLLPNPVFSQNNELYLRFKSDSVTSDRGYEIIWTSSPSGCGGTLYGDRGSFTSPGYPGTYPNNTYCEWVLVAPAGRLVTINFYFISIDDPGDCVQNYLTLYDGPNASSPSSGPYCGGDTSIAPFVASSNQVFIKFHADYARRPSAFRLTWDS
Chain of cubilin (CUBN) (P27352 19-417, species assumed): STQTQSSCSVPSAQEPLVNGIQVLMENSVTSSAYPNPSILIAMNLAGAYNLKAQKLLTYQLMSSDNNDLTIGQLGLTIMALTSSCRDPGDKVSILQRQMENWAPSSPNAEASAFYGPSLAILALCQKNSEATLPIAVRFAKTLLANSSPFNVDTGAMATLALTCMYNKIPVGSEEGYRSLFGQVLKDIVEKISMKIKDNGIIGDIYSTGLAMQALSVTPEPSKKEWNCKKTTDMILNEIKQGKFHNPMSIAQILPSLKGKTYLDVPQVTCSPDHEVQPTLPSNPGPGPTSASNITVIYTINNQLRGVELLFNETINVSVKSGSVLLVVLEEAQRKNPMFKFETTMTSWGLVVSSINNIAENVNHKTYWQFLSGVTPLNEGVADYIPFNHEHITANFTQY

NCCCC[C@H](N)C(=O)O [1-lysine, L-lysine]
decrease of kidney uptake [1]: approximately 95%

IF405: intrinsic factor tagged with Alexa Fluor 405
binding, uptake or internalization in BeWo cells [2]: shows uptake

IF-B12: complex of intrinsic factor, a 50 kDa protein, bound to B12
pKd (cubilin (CUBN)): ~8.30
